Holding throughout (design): key: −: no saccharide-transferred product was detected through transfer reaction to acceptor; ∀: a saccharide-transferred product was detected in an amount less than one percent through transfer reaction to acceptor; +: a saccharide-transferred product was detected in an amount over one percent but less than ten percent through transfer reaction to acceptor; ++: a saccharide-transferred product was detected in an amount over ten percent through transfer reaction to acceptor

Experiment [1] relates to α-isomaltosylglucosaccharide-forming enzyme. Description: Transfer-acceptor specificity, Enzyme of Strain C11. The format is biochemical, Bacillus globisporus C11. The note with it: acceptor 1.6%, PINE-DEX #100 donor 4%, one unit/g donor, 30° C., pH 6.0, 24 hours. The protocol:
(§1) Using different saccharides, it was tested whether the saccharides were used as transferring-acceptors for the α-isomaltosylglucosaccharide-forming enzyme of the present invention. A solution of D-glucose, D-xylose, L-xylose, D-galactose, D-fructose, D-mannose, D-arabinose, D-fucose, D-psicose, L-sorbose, L-rhamnose, methyl-α-glucopyranoside, methyl-β-glucopyranoside, N-acetyl-glucosamine, sorbitol, trehalose, isomaltose, isomaltotriose, cellobiose, gentibiose, glycerol, maltitol, lactose, sucrose, α-cyclodextrin, β-cyclodextrin, γ-cyclodextrin, or L-ascorbic acid was prepared.
(§2) To each solution with a saccharide concentration of 1.6% was added “PINE-DEX #100”, a partial starch hydrolysate, as a saccharide donor, to give a concentration of 4%, and admixed with one unit/g saccharide donor, d.s.b., of either of purified specimens of α-isomaltosylglucosaccharide-forming enzyme from Bacillus globisporus C9 obtained by the method in Experiment 4-2, Bacillus globisporus C11 obtained by the method in Experiment 7-2, Bacillus globisporus N75 obtained by the method in Experiment 11-2, or Arthrobacter globiformis A19 obtained by the method in Experiment 15-2, and incubated at 30° C. and pH 6.0, except that pH 8.4 was used for the enzyme from Arthrobacter globiformis A19, for 24 hours. The reaction mixtures of the post-enzymatic reactions were analyzed on gas chromatography (abbreviated as “GLC” hereinafter) for monosaccharides and disaccharides as acceptors, and on HPLC for trisaccharides as acceptors to confirm whether these saccharides could be used as their transfer acceptors. In the case of performing GLC, the following apparatuses and conditions are used: GLC apparatus, “GC-16A” commercialized by Shimadzu Corporation, Tokyo, Japan; column, a stainless-steel column, 3 mm in diameter and 2 m in length, packed with 2% “SILICONE OV-17/[…]”, commercialized by GL Sciences Inc., Tokyo, Japan; carrier gas, nitrogen gas at a flow rate of 40 ml/min under temperature conditions of increasing from 160° C. to 320° C. at an increasing temperature rate of 7.5° C./min; and detection, a hydrogen flame ionization detector. In the case of HPLC analysis, the apparatuses and conditions used are: HPLC apparatus, “CCPD” commercialized by Tosoh Corporation, Tokyo, Japan; column, “ODS-AQ-303” commercialized by YMC Co., Ltd., Tokyo, Japan; eluent, water at a flow rate of 0.5 ml/min; and detection, a differential refractometer.

Experiment [2] has the same test system. Description: Transfer-acceptor specificity, Enzyme of Strain C9. The class given is biochemical, Bacillus globisporus C9. As to conditions: acceptor 1.6%, PINE-DEX #100 donor 4%, one unit/g donor, 30° C., pH 6.0, 24 hours. How it is done: as §1, §2
The test system is the same in experiment [3]. Description: Transfer-acceptor specificity, Enzyme of Strain N75. The format is biochemical, Bacillus globisporus N75. The note with it: acceptor 1.6%, PINE-DEX #100 donor 4%, one unit/g donor, 30° C., pH 6.0, 24 hours. How it is done:
as §1, §2

The test system is the same in experiment [4]. Description: Transfer-acceptor specificity, Enzyme of Strain A19. The class given is biochemical, Arthrobacter globiformis A19. The note with it: acceptor 1.6%, PINE-DEX #100 donor 4%, one unit/g donor, 30° C., pH 8.4, 24 hours. The protocol:
as §1, §2

Regarding `O=C[C@@H](O)[C@H](O)[C@H](O)CO` [D-Arabinose], the “Product of transferring reaction, Enzyme of Strain C11” value (shortened to “Product … of Strain C11”) in experiment [1] is “∀ (a saccharide-transferred product was detected in an amount less than one percent through transfer reaction to acceptor)”. The “Product of transferring reaction, Enzyme of Strain C9” value (shortened to “Product … of Strain C9”) in experiment [2] is recorded as “∀ (a saccharide-transferred product was detected in an amount less than one percent through transfer reaction to acceptor)”. Also, the “Product of transferring reaction, Enzyme of Strain N75” value (from here on “Product … of Strain N75”) in experiment [3] is “∀ (a saccharide-transferred product was detected in an amount less than one percent through transfer reaction to acceptor)”. The “Product of transferring reaction, Enzyme of Stain A19” value (from here on “Product … of Stain A19”) in experiment [4] is given as “∀ (a saccharide-transferred product was detected in an amount less than one percent through transfer reaction to acceptor)”.

Regarding `O=C[C@@H](O)[C@@H](O)[C@H](O)[C@H](O)CO` [D-Mannose], the “Product … of Strain C11” value in experiment [1] is “−”. Besides, the “Product … of Strain C9” value in experiment [2] is recorded as “−”. Further, in experiment [3], the “Product … of Strain N75” value is given as “−”. Also, in experiment [4], the “Product … of Stain A19” value is listed as “∀ (a saccharide-transferred product was detected in an amount less than one percent through transfer reaction to acceptor)”.

Consider `O=C(CO)[C@@H](O)[C@H](O)[C@H](O)CO` [D-Fructose], for which, in experiment [1], the “Product … of Strain C11” value is “+ (a saccharide-transferred product was detected in an amount over one percent but less than ten percent through transfer reaction to acceptor)”. In addition, the “Product … of Strain C9” value in experiment [2] is “+ (a saccharide-transferred product was detected in an amount over one percent but less than ten percent through transfer reaction to acceptor)”. Also, the “Product … of Strain N75” value in experiment [3] was “+ (a saccharide-transferred product was detected in an amount over one percent but less than ten percent through transfer reaction to acceptor)”. Moreover, in experiment [4], the “Product … of Stain A19” value is “+ (a saccharide-transferred product was detected in an amount over one percent but less than ten percent through transfer reaction to acceptor)”.

As for `O=C[C@@H](O)[C@H](O)[C@@H](O)CO` [L-Xylose], in experiment [1], the “Product … of Strain C11” value is “++ (a saccharide-transferred product was detected in an amount over ten percent through transfer reaction to acceptor)”. Further, the “Product … of Strain C9” value in experiment [2] is reported as “++ (a saccharide-transferred product was detected in an amount over ten percent through transfer reaction to acceptor)”. The “Product … of Strain N75” value in experiment [3] is “++ (a saccharide-transferred product was detected in an amount over ten percent through transfer reaction to acceptor)”. Besides, the “Product … of Stain A19” value in experiment [4] was “+ (a saccharide-transferred product was detected in an amount over one percent but less than ten percent through transfer reaction to acceptor)”.

For the compound `O=C[C@H](O)[C@@H](O)[C@H](O)CO` [D-Xylose], the “Product … of Strain C11” value in experiment [1] is listed as “++ (a saccharide-transferred product was detected in an amount over ten percent through transfer reaction to acceptor)”. In experiment [2], the “Product … of Strain C9” value is on record as “++ (a saccharide-transferred product was detected in an amount over ten percent through transfer reaction to acceptor)”. In addition, the “Product … of Strain N75” value in experiment [3] was “++ (a saccharide-transferred product was detected in an amount over ten percent through transfer reaction to acceptor)”. The “Product … of Stain A19” value in experiment [4] is “+ (a saccharide-transferred product was detected in an amount over one percent but less than ten percent through transfer reaction to acceptor)”.

Regarding `O=C[C@H](O)[C@@H](O)[C@@H](O)[C@H](O)CO` [D-Galactose], in experiment [1], the “Product … of Strain C11” value is recorded as “+ (a saccharide-transferred product was detected in an amount over one percent but less than ten percent through transfer reaction to acceptor)”. Moreover, the “Product … of Strain C9” value in experiment [2] was “+ (a saccharide-transferred product was detected in an amount over one percent but less than ten percent through transfer reaction to acceptor)”. The “Product … of Strain N75” value in experiment [3] was “+ (a saccharide-transferred product was detected in an amount over one percent but less than ten percent through transfer reaction to acceptor)”. Moreover, the “Product … of Stain A19” value in experiment [4] was “∀ (a saccharide-transferred product was detected in an amount less than one percent through transfer reaction to acceptor)”.

With `OC[C@H]1O[C@@H]2O[C@H]3[C@H](O)[C@@H](O)[C@@H](O[C@H]4[C@H](O)[C@@H](O)[C@@H](O[C@H]5[C@H](O)[C@@H](O)[C@@H](O[C@H]6[C@H](O)[C@@H](O)[C@@H](O[C@H]7[C@H](O)[C@@H](O)[C@@H](O[C@H]8[C@H](O)[C@@H](O)[C@@H](O[C@H]9[C@H](O)[C@@H](O)[C@@H](O[C@H]1[C@H](O)[C@H]2O)O[C@@H]9CO)O[C@@H]8CO)O[C@@H]7CO)O[C@@H]6CO)O[C@@H]5CO)O[C@@H]4CO)O[C@@H]3CO` [γ-Cyclodextrin], in experiment [1], the “Product … of Strain C11” value is reported as “−”. Moreover, the “Product … of Strain C9” value in experiment [2] was “−”. Besides, the “Product … of Strain N75” value in experiment [3] is given as “−”. Moreover, the “Product … of Stain A19” value in experiment [4] is “−”.

For the compound `CC(=O)N[C@H]1C(O)O[C@H](CO)[C@@H](O)[C@@H]1O` (some centres unmarked) [N-Acetyl-glucosamine], the “Product … of Strain C11” value in experiment [1] is reported as “+ (a saccharide-transferred product was detected in an amount over one percent but less than ten percent through transfer reaction to acceptor)”. Further, in experiment [2], the “Product … of Strain C9” value was “+ (a saccharide-transferred product was detected in an amount over one percent but less than ten percent through transfer reaction to acceptor)”. Moreover, in experiment [3], the “Product … of Strain N75” value is “+ (a saccharide-transferred product was detected in an amount over one percent but less than ten percent through transfer reaction to acceptor)”. Besides, the “Product … of Stain A19” value in experiment [4] was “−”.

In the case of `OC[C@@H](O)[C@@H](O)[C@H](O)[C@@H](O)CO` [Sorbitol], the “Product … of Strain C11” value in experiment [1] is “−”. Also, the “Product … of Strain C9” value in experiment [2] was “−”. Moreover, the “Product … of Strain N75” value in experiment [3] is given as “−”. For the same compound, in experiment [4], the “Product … of Stain A19” value was “−”.

On to `C[C@@H](O)[C@H](O)[C@H](O)[C@@H](O)C=O` [D-Fucose], for which the “Product … of Strain C11” value in experiment [1] was “+ (a saccharide-transferred product was detected in an amount over one percent but less than ten percent through transfer reaction to acceptor)”. In experiment [2], the “Product … of Strain C9” value is recorded as “+ (a saccharide-transferred product was detected in an amount over one percent but less than ten percent through transfer reaction to acceptor)”. Further, the “Product … of Strain N75” value in experiment [3] is “+ (a saccharide-transferred product was detected in an amount over one percent but less than ten percent through transfer reaction to acceptor)”. Further, in experiment [4], the “Product … of Stain A19” value is listed as “∀ (a saccharide-transferred product was detected in an amount less than one percent through transfer reaction to acceptor)”.

On to `C[C@H](O)[C@H](O)[C@@H](O)[C@@H](O)C=O` [L-Rhamnose], for which the “Product … of Strain C11” value in experiment [1] is reported as “−”. Besides, the “Product … of Strain C9” value in experiment [2] is “−”. In experiment [3], the “Product … of Strain N75” value is listed as “−”. In experiment [4], the “Product … of Stain A19” value is listed as “−”.

Source of the values: patent publication US7811797B2, “α-isomaltosylglucosaccharide-forming enzyme, process and uses of the same” (Kabushiki Kaisha Hayashibara Seibutsu Kagaku Kenkyujo, priority 2000, dated 2010).
